{
  "source": "ChEMBL document CHEMBL5214923",
  "about": "“Contemporary mTOR inhibitor scaffolds to diseases breakdown: A patent review (2015-2021)” (Eur J Med Chem, 2022)",
  "key": {"mTORC1 [1]": {"target": "T1, mTORC1 (Homo sapiens, UniProt P42345+Q8N122+Q9BVC4)", "experiment": "Inhibition of mTORC1 in human PC-3 cells assessed as measuring phosphorylated S6K level incubated for 24 hrs by AlphaLISA assay", "format": "cell-based"}, "mTORC2 [2]": {"target": "T2, mTORC2 (Homo sapiens, UniProt P42345+Q6R327+Q9BPZ7+Q9BVC4)", "experiment": "Inhibition of mTORC2 in human PC-3 cells assessed as measuring phosphorylated Akt level incubated for 24 hrs by AlphaLISA assay", "format": "cell-based"}, "mTORC2 (Homo sapiens)": {"target": "mTORC2 (Homo sapiens) (UniProt P42345+Q6R327+Q9BVC4+Q9BPZ7)", "experiment": "Inhibition of mTORC2 (unknown origin) assessed as measuring phosphorylated AKT at 0.5 uM relative to control", "format": "protein-complex assay"}, "mTORC1 [3]": {"target": "T1, mTORC1", "experiment": "Inhibition of mTORC1 (unknown origin) assessed as measuring phosphorylated p7OS6K level at 0.2 uM relative to control", "format": "protein-complex assay"}, "mTORC1 [4]": {"target": "T1, mTORC1", "experiment": "Inhibition of mTORC1 (unknown origin) assessed as measuring phosphorylated 4EBP1 level at 1 uM relative to control", "format": "protein-complex assay"}, "[5]": {"target": "T3, Serine/threonine-protein kinase mTOR (Homo sapiens, UniProt P42345)", "experiment": "Inhibition of mTOR (unknown origin) assessed as residual activity at 30 nM relative to control; values are per cent of control"}, "[6]": {"target": "Phosphatidylinositol 4,5-bisphosphate 3-kinase catalytic subunit gamma isoform (Homo sapiens, UniProt P48736)", "sequence (P48736 whole entry, canonical isoform)": "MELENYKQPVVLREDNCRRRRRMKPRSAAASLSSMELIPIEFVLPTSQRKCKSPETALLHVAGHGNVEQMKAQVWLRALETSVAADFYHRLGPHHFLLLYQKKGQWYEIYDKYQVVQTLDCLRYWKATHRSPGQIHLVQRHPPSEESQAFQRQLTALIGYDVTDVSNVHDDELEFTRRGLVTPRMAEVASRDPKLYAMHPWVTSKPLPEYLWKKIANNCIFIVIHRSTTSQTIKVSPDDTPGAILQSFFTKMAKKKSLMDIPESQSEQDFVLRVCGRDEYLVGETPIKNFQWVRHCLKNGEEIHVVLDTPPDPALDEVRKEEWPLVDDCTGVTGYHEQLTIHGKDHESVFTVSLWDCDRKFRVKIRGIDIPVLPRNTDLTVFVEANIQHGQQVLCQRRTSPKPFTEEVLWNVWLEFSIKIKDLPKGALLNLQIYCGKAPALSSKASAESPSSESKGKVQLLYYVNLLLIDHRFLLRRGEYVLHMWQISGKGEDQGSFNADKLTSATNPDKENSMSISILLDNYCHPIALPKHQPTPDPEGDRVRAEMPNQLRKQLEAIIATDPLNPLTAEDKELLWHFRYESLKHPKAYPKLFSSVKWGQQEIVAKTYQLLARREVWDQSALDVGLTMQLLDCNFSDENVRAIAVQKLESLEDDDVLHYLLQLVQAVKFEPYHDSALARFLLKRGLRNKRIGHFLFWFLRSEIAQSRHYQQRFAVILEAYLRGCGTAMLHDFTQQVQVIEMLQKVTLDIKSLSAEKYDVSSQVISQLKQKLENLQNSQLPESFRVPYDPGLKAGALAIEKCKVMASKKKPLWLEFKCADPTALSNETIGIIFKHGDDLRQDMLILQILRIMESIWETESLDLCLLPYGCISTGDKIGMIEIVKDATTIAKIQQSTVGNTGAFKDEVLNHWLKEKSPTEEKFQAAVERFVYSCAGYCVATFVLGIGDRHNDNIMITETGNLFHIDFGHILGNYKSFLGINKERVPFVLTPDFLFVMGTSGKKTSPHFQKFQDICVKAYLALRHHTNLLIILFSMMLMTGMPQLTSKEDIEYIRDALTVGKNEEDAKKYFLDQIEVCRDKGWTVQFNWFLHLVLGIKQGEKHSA", "experiment": "Inhibition of human PI3Kgamma preincubated for 15 mins followed by ATP addition measured after 1 hr by TR-FRET assay"}, "[7]": {"target": "T4, Phosphatidylinositol 4,5-bisphosphate 3-kinase catalytic subunit delta isoform (Homo sapiens, UniProt O00329)", "T4 sequence (O00329 whole entry)": "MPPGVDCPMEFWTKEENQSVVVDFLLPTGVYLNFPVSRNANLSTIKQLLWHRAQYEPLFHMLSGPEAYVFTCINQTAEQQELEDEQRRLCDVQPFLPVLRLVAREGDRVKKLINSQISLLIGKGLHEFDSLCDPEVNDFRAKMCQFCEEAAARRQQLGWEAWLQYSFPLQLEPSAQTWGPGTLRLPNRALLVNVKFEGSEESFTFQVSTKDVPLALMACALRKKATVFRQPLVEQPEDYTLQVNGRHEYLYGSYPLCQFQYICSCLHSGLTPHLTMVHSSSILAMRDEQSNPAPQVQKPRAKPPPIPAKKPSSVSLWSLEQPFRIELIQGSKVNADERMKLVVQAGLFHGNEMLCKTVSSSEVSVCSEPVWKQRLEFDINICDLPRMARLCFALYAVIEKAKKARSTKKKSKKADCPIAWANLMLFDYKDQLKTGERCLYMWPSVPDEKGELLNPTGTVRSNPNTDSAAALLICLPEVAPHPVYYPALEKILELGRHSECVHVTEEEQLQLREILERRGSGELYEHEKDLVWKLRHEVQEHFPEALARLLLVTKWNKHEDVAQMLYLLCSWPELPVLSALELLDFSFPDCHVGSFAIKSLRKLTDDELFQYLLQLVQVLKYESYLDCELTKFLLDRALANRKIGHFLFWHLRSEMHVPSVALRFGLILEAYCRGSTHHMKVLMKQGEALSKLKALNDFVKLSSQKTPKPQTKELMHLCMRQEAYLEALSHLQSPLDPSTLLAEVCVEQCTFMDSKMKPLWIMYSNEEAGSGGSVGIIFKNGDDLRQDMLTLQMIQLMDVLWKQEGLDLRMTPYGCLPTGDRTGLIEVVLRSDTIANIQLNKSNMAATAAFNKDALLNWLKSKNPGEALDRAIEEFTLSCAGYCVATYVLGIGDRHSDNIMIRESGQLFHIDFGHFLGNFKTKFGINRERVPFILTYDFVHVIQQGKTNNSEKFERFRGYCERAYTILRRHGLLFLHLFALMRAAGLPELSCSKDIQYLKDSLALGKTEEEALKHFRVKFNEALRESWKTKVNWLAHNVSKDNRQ", "experiment": "Inhibition of human PI3Kdelta preincubated for 15 mins followed by ATP addition measured after 1 hr by TR-FRET assay"}, "mTORC1 [8]": {"target": "T1, mTORC1", "experiment": "Inhibition of mTORC1 (unknown origin)", "format": "protein-complex assay"}, "[9]": {"target": "T3, Serine/threonine-protein kinase mTOR", "experiment": "Inhibition of human mTOR assessed as measuring phosphorylated p70S6K level by TR-FRET assay"}, "mTORC2 [10]": {"target": "T2, mTORC2", "experiment": "Inhibition of mTORC2 (unknown origin)", "format": "protein-complex assay"}, "[11]": {"target": "T3, Serine/threonine-protein kinase mTOR", "experiment": "Inhibition of mTOR (unknown origin)"}, "[12]": {"target": "Phosphatidylinositol 4,5-bisphosphate 3-kinase catalytic subunit alpha isoform (Homo sapiens, UniProt P42336)", "sequence (P42336 whole entry, canonical isoform)": "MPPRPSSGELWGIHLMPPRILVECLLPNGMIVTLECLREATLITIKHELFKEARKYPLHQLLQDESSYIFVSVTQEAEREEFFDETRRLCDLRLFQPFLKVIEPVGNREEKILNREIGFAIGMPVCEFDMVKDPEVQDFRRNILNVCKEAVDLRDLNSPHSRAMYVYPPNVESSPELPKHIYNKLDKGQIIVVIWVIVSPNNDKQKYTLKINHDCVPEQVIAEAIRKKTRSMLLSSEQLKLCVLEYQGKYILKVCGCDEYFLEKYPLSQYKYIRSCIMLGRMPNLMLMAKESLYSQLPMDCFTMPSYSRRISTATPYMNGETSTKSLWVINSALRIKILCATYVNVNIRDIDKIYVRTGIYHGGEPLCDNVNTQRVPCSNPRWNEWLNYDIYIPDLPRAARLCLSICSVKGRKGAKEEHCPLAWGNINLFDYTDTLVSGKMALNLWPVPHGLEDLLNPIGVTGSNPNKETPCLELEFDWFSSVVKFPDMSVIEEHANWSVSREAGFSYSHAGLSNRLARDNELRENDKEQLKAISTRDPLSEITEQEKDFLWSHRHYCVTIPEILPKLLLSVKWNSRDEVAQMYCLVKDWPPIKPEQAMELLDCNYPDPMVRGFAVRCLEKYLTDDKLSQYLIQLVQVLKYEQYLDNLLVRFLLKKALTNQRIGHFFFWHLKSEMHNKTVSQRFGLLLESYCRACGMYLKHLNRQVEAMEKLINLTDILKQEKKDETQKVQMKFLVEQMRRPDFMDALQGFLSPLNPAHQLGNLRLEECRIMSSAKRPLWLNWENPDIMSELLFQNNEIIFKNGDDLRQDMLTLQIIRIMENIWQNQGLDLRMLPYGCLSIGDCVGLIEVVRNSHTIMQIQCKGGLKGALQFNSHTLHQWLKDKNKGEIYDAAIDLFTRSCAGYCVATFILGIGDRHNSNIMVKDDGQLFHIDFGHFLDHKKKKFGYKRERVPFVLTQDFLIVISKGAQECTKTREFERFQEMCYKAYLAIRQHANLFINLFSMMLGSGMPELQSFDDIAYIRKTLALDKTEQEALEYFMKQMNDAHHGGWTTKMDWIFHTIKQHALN", "experiment": "Inhibition of human PI3Kalpha preincubated for 15 mins followed by ATP addition measured after 1 hr by TR-FRET assay"}, "A549": {"test_system": "A549", "experiment": "Antitumor activity against human A549 cells assessed as cell growth inhibition incubated for 72 hrs by Cell Titer-Glo assay", "format": "functional, cell-based", "details": "A549, 72 h"}, "[13]": {"experiment": "Solubility of the compound in water", "format": "physicochemical"}},
  "data": [
    {"smiles": "CO[C@@H]1C[C@H](C[C@@H](C)[C@@H]2CC(=O)[C@H](C)/C=C(\\C)[C@@H](O)[C@@H](OC)C(=O)[C@H](C)C[C@H](C)/C=C/C=C/C=C(\\C)C(OCCO)C[C@@H]3CC[C@@H](C)[C@@](O)(O3)C(=O)C(=O)N3CCCC[C@H]3C(=O)O2)CC[C@H]1OC(=O)NCCc1ccccc1", "note": "(stereo partly drawn)", "values": [
      {"measurement": "IC50", "setting": "mTORC1 [1]", "result": "< 0.316", "unit": "nM"},
      {"measurement": "IC50", "setting": "mTORC2 [2]", "result": "> 10000", "unit": "nM"}
    ]},
    {"smiles": "CNC(=O)c1cccc(-c2ccc3c(N4CCOC[C@@H]4C)nc(N4CCO[C@@H]5CCC[C@@H]54)nc3n2)c1", "values": [
      {"measurement": "inhibition", "setting": "mTORC2 (Homo sapiens)", "result": 89, "unit": "%"},
      {"measurement": "inhibition", "setting": "mTORC1 [3]", "result": 89.9, "unit": "%"},
      {"measurement": "inhibition", "setting": "mTORC1 [4]", "result": 62, "unit": "%"}
    ]},
    {"smiles": "CN(C)CC(=O)Nc1ccc(-c2ccc3ncc4c(c3c2)n(-c2ccc(C(C)(C)C#N)cc2)c2nncn42)cn1", "values": [
      {"measurement": "residual activity", "setting": "[5]", "result": "< 5", "unit": "%"}
    ]},
    {"smiles": "CO[C@@H]1C[C@H](C[C@@H](C)[C@@H]2CC(=O)[C@H](C)/C=C(\\C)[C@@H](O)[C@@H](OC)C(=O)[C@H](C)C[C@H](C)/C=C/C=C/C=C(\\C)C(OCCO)C[C@@H]3CC[C@@H](C)[C@@](O)(O3)C(=O)C(=O)N3CCCC[C@H]3C(=O)O2)CC[C@H]1OCCCN1CCOC[C@@H]1C", "note": "(stereo partly drawn)", "values": [
      {"measurement": "IC50", "setting": "mTORC1 [1]", "result": "< 0.316", "unit": "nM"},
      {"measurement": "IC50", "setting": "mTORC2 [2]", "result": "> 10000", "unit": "nM"}
    ]},
    {"smiles": "CC(C)n1nc(-c2cc3cc(O)cc(F)c3[nH]2)c2c(N)ncnc21", "values": [
      {"measurement": "IC50", "setting": "[6]", "result": 100, "unit": "nM"},
      {"measurement": "IC50", "setting": "[7]", "result": 50, "unit": "nM"},
      {"measurement": "IC50", "setting": "mTORC1 [8]", "result": "< 5", "unit": "nM"}
    ]},
    {"smiles": "COc1ccc(-c2ccc3c(N4CCOC[C@@H]4C)nc(N4CCOC[C@@H]4C)cc3n2)cc1", "values": [
      {"measurement": "IC50", "setting": "[9]", "result": "< 100", "unit": "nM"}
    ]},
    {"smiles": "CO[C@@H]1C[C@H](C[C@@H](C)[C@@H]2CC(=O)[C@H](C)/C=C(\\C)[C@@H](O)[C@@H](OC)C(=O)[C@H](C)C[C@H](C)/C=C/C=C/C=C(\\C)C(OCCO)C[C@@H]3CC[C@@H](C)[C@@](O)(O3)C(=O)C(=O)N3CCCC[C@H]3C(=O)O2)CC[C@H]1OCCCN1CCOC(C)(C)C1", "note": "(stereo partly drawn)", "values": [
      {"measurement": "IC50", "setting": "mTORC1 [1]", "result": "< 0.316", "unit": "nM"},
      {"measurement": "IC50", "setting": "mTORC2 [2]", "result": "> 10000", "unit": "nM"}
    ]},
    {"smiles": "O=c1[nH]c2ncc(-c3ccc(-c4nc[nH]n4)cc3)nc2n1CCC1CCOCC1", "values": [
      {"measurement": "IC50", "setting": "mTORC2 [10]", "result": 40, "unit": "nM"},
      {"measurement": "IC50", "setting": "[11]", "result": 18, "unit": "nM"},
      {"measurement": "IC50", "setting": "mTORC1 [8]", "result": 2, "unit": "nM"}
    ]},
    {"smiles": "COc1ccc(-c2ccc3c(N4CCOC[C@@H]4C)nc(N4CCOC[C@@H]4C)cc3n2)cc1CO", "values": [
      {"measurement": "IC50", "setting": "[9]", "result": "< 100", "unit": "nM"}
    ]},
    {"smiles": "CC(C)(O)c1ccc(-c2cnc3[nH]c(=O)n(CC4CCOCC4)c3n2)cn1", "values": [
      {"measurement": "IC50", "setting": "mTORC2 [10]", "result": 2410, "unit": "nM"},
      {"measurement": "IC50", "setting": "[11]", "result": 2550, "unit": "nM"},
      {"measurement": "IC50", "setting": "mTORC1 [8]", "result": 176, "unit": "nM"}
    ]},
    {"smiles": "CC(C)n1nc(-c2cc3cccc(O)c3[nH]2)c2c(N)ncnc21", "values": [
      {"measurement": "IC50", "setting": "[6]", "result": 100, "unit": "nM"},
      {"measurement": "IC50", "setting": "[7]", "result": 100, "unit": "nM"},
      {"measurement": "IC50", "setting": "mTORC1 [8]", "result": "< 5", "unit": "nM"}
    ]},
    {"smiles": "COc1cccc2cc(-c3nn(C4CCOCC4)c4ncnc(N)c34)[nH]c12", "values": [
      {"measurement": "IC50", "setting": "[6]", "result": 10, "unit": "nM"},
      {"measurement": "IC50", "setting": "[7]", "result": 10, "unit": "nM"},
      {"measurement": "IC50", "setting": "[12]", "result": 100, "unit": "nM"},
      {"measurement": "IC50", "setting": "mTORC1 [8]", "result": "< 5", "unit": "nM"}
    ]},
    {"smiles": "C[C@H]1COCCN1c1nc(N2CCO[C@@H]3CCCC[C@@H]32)nc2nc(-c3cccc(C4=NCC(C)(C)N4)c3)ccc12", "values": [
      {"measurement": "inhibition", "setting": "mTORC2 (Homo sapiens)", "result": 56.2, "unit": "%"},
      {"measurement": "inhibition", "setting": "mTORC1 [3]", "result": 77.7, "unit": "%"},
      {"measurement": "inhibition", "setting": "mTORC1 [4]", "result": 83.2, "unit": "%"}
    ]},
    {"smiles": "CO[C@@H]1C[C@@H]2CC[C@@H](C)[C@@](O)(O2)C(=O)C(=O)N2CCCC[C@H]2C(=O)O[C@H]([C@H](C)C[C@@H]2CC[C@@H](O)[C@H](OC)C2)CC(=O)[C@H](C)/C=C(\\C)[C@@H](OC(=O)C[n+]2csc(C)c2C)[C@@H](OC)C(=O)[C@H](C)C[C@H](C)/C=C/C=C/C=C/1C.[Br-]", "values": [
      {"measurement": "IC50", "setting": "A549", "result": 3040, "unit": "nM"},
      {"measurement": "solubility", "setting": "[13]", "result": 10000, "unit": "µg/mL"}
    ]}
  ]
}
